The values that follow come from patent publication US7635779B2, “Oxy substituted flavones as antihyperglycemic and antidyslipidemic agents” (Council of Scientific & Industrial Research, priority 2004, dated 2009).

Series [1] relates to triton WR-1339 induced hyperlipidemic rats. The series is described as follows: Triton model, antidyslipidemic activity. It counts as in vivo, rat. Particulars: 100 mg/kg oral, plasma after 18 h; for inhibition in vivo at 100 mg/kg: Rattus norvegicus. On the procedure:
Male Charles foster rats weighing 200-225 g were divided into control, hyperlipidemic and hyperlipidemic plus drug treated groups containing six animals in each group. Hyperlipidemia was induced by administration of triton WR-1339 (200 mg/kg i.p.). All animals were maintained on a special pellet diet and water ad libitum. Compounds and standard drug were macerated with 0.2% aqueous gum acacia suspension. The suspension was fed orally at the dose of 100 mg/kg simultaneously with triton in drug treated group. The animals of control group received the same amount of gum acacia by similar route of administration. At the end of the experiment, after 18 h, blood was withdrawn from retro orbital plexus and plasma was used for the assay of total cholesterol, phospholipid and triglycerides.
Cholesterol was estimated using the kit provided by Roche Diagnostics. Cholesterol esters are enzymatically hydrolyzed by cholesterol esterase (CE) to cholesterol and free fatty acids. Free cholesterol, including that originally present, is then oxidized by cholesterol oxidase (CO) to cholest-4-en-3-one and hydrogen peroxide. The hydrogen peroxide combines with hydroxy benzoic acid (HBA) and 4-aminoantipyrine (4AAA) in the presence of peroxidase (POD) to form a chromophore (quinoneimine dye), which may be quantitated at 500-505 nm. The intensity of red colour formed is directly proportional to the concentration of total cholesterol in the specimen and measured spectrophotometrically (Searcy, C. L. Diagnostic Biochemistry, 1969, McGraw Hill, New York; Ellefson, R. D.; Caraway, W. T. Fundamentals of clinical chemistry, 1976, Ed Tietz N W, 506-515.)
Triglycerides were estimated using the kit provided by Roche Diagnostics. Lipoprotein lipase hydrolyses triglycerides to yield glycerol and fatty acids. Glycerol kinase converts glycerol to glycerol-3-phosphate, which is oxidized by glycerol phosphate oxidase to dihydroxy acetone phosphate and hydrogen peroxide. In the presence of peroxidase, hydrogen peroxide oxidatively couples with 4-aminoantipyrine and 4-chloro phenol to produce red quinonimine dye. The intensity of red colour formed is directly proportional to the concentration of triglycerides in the specimen and is measured by photometrically (Wahlefeld, A. W.; Bergmeyer, H. U. Ed. Methods of enzymatic analysis, 2nd English edition, New York, N.Y., Academic press inc, 1831-1840.).
Serum (0.2 mL) and perchloric acid (1.0 mL) was digested at 180° C. for 1-1.5 h till the solution became colorless. The liberated inorganic phosphate (Pi) was measured by the method of Fiske and Subbarow (Fiske, C. H.; Subbarow, V. J. Biol. Chem. 1925, 66, 375.). 1 mL of 2.5% ammonium molybdate (prepared in 5 N sulphuric acid) and 0.5 mL reducing agent (4-amino naphthol sulphonic acid, 0.2%), sodium metabisulphite (2.4% w/v in distilled water) was added to the above tubes and mixed well. The reaction mixture was […] with 2.5 mL of triple distilled water and kept at 60° C. in water bath for 20 min. For standard, an appropriate amount of potassium dihydrogen phosphate dissolved in triple distilled water containing 2-10 μg phosphorous (Pi) was run simultaneously with the experiment tubes. The optical density of the blue colour was recorded at 620 nm against reagent blank. The values of Pi were converted into phospholipid by multiplying with 25 (a constant calibrated from Pi value of lecithin).

The test system of a further series is sucrose loaded rat. The series is described as follows: Sucrose loaded rat model (SLM), antihyperglycemic activity. It counts as in vivo. The settings on record: for % Fall in blood glucose levels, SLM: 100 mg/kg oral, AUC vs control; for inhibition in vivo at 100 mg/kg: Rattus norvegicus, po, 2 h, read-out: % Fall in blood glucose levels, SLM. Here is the method:
Male albino rats of Charles Foster/Wistar strain of average body weight 160±20 g were selected for this study. The blood glucose level of each animal was checked by glucometer using glucostrips (Boehringer Mannheim) after 16 h starvation. Animals showing blood glucose levels between 3.33 to 4.44 mM (60 to 80 mg/dl) were divided into groups of five to six animals in each. Animals of experimental group were administered suspension of the desired synthetic compound orally (made in 1.0% gum acacia) at a dose of 100-mg/kg-body weight. Animals of control group were given an equal amount of 1.0% gum acacia. A sucrose load (10.0 g/kg) was given to each animal orally exactly after 30 min post administration of the test sample/vehicle. Blood glucose profile of each rat was again determined at 30, 60, 90 and 120 min post administration of sucrose by glucometer. Food but not water was withheld from the cages during the course of experimentation. Quantitative glucose tolerance of each animal was calculated by Area Under Curve (AUC) method (Prism Software). Comparing the AUC of experimental and control groups determined the percentage antihyperglycemic activity. Statistical comparison was made by Dunnett's test.

The test system of series [2] is streptozotocin-induced diabetic rats. The series is described as follows: Sucrose-challenged streptozotocin-induced diabetic rats (STZ-S). It counts as in vivo, rat. The settings on record: 100 mg/kg oral. Here is the method: Male albino rats of Sprague Dawley strain of body weight 160+20 g were selected for this study. Streptozotocin (Sigma, USA) was dissolved in 100 mM citrate buffer pH 4.5 and calculated amount of the fresh solution was injected to overnight fasted rats (45 mg/kg) intraperitoneally. Blood glucose level was checked 48 h later by glucostrips and animals showing blood glucose values between 144 to 270 mg/dl (8 to 15 mM) were included in the experiment and termed diabetic. The diabetic animals were divided into groups consisting of five to six animals in each group. Animals of experimental groups were administered suspension of the desired test samples orally (made in 1.0% gum acacia) at a dose of 100-mg/kg-body weight. Animals of control group were given an equal amount of 1.0% gum acacia. A sucrose load of 2.5-g/kg body weight was given after 30 minutes of compound administration. After 30 minutes of post sucrose load blood glucose level was again checked by glucostrips at 30, 60, 90, 120, 180, 240, 300 min and at 24 h, respectively. Animals not found diabetic after 24 hours post treatment of the test sample were not considered and omitted from the calculations and termed as non-responders. […] Food but not water was withheld from the cages during the experimentation. Comparing the AUC of experimental and control groups determined the percent antihyperglycemic activity. Statistical comparison between groups was made by Student's ‘t’ test.
As depicted in the FIGURE, a dose response curve of 34 was obtained by administering different doses of test compound to streptozotocin-induced diabetic rats (Table 6). […]

[3] abbreviates: phospholipid, read-out: % Fall in lipid levels (Triton model) PL.
[4] abbreviates: total cholesterol, read-out: % Fall in lipid levels (Triton model) TC.
[5] abbreviates: triglycerides, read-out: % Fall in lipid levels (Triton model) TG.

Like-named read-outs stand apart in the source and are kept apart here.

By melting point is commonly meant the temperature of the solid-liquid transition. `COc1cc(-c2cc(=O)c3ccc(OCC(O)CNC(C)(C)C)cc3o2)cc(OC)c1OC` (stereo not shown) [Compound 40, 7-(3-tert-Butylamino-2-hydroxy-propoxy)-3′,4′,5′-trimethoxy-flavone]: the melting point fell in the range of 119 to 120 °C. For the same molecule, in series [1] (setting [3]), the inhibition in vivo at 100 mg/kg came out at 26%. Also, the inhibition in vivo at 100 mg/kg in series [1] (setting [4]) turned out to be 24%. The inhibition in vivo at 100 mg/kg in series [1] (setting [5]) was 28%. In the series with sucrose loaded rat, the “% Fall in blood glucose levels, SLM” value was “NIL”.

`CC(C)(C)NCC(O)COc1ccc2oc(-c3ccc(O)c(O)c3)cc(=O)c2c1` (stereo not shown) [Compound 52, 6-(3-tert-Butylamino-2-hydroxy-propoxy)-3′,4′-dihydroxy-flavone]: the inhibition in vivo at 100 mg/kg in series [1] (setting [3]) came to 23%; in series [1] (setting [4]), 24%; in series [1] (setting [5]), 25%; with sucrose loaded rat, 4.96%.

Take `CC(C)NCC(O)COc1ccc2c(=O)cc(-c3cc(OCc4ccccc4)cc(OCc4ccccc4)c3)oc2c1` (stereo not shown) [Compound 35, 3′,5′-Dibenzyloxy-7-(2-hydroxy-3-iso-propylamino-propoxy)-flavone]: the melting point was 173 to 174 °C. For the same molecule, the inhibition in vivo at 100 mg/kg in series [1] (setting [3]) was determined as 8%. Further, the inhibition in vivo at 100 mg/kg in series [1] (setting [4]) came out at 13%. Moreover, the inhibition in vivo at 100 mg/kg in series [1] (setting [5]) stood at 11%. For the same molecule, the “% Fall in blood glucose levels, SLM” value in the series with sucrose loaded rat was “NIL”.

In turn, `CC(C)(C)NCC(O)COc1ccc2c(=O)cc(-c3ccc(OCc4ccccc4)c(OCc4ccccc4)c3)oc2c1` (stereo not shown) [Compound 37, 7-(3-tert-Butylamino-2-hydroxy-propoxy)-3′,4′-dibenzyloxy-flavone] registered a melting point of 159 to 161 °C. Further, the inhibition in vivo at 100 mg/kg in series [1] (setting [3]) was 12%. Further, the inhibition in vivo at 100 mg/kg in series [1] (setting [4]) worked out at 23%. The inhibition in vivo at 100 mg/kg in series [1] (setting [5]) worked out at 16%. In addition, in the series on sucrose loaded rat, the “% Fall in blood glucose levels, SLM” value was “NIL”.

Take `COc1cc(OC)cc(-c2cc(=O)c3ccc(OCCCOc4ccc(C=C5SC(=O)NC5=O)cc4)cc3o2)c1` [Compound 66, 3′,5′-Dimethoxy-7-{3-[4-(thiazolidin-2,4-dione-5-ylidinemethyl)-phenoxy]-propoxy}-flavone]: in the series with sucrose loaded rat, the “% Fall in blood glucose levels, SLM” value is 28.80%. Moreover, in series [2], the “% Fall in blood glucose levels, STZ-S 5 h” value is recorded as 18.9% and the “% Fall in blood glucose levels, STZ-S 24 h” value stood at 20.2%.

As to `COc1cc(-c2cc(=O)c3ccc(OCCOc4ccc(C=C5SC(=O)NC5=O)cc4)cc3o2)cc(OC)c1OC` [Compound 64, 7-{2-[4-(thiazolidin-2,4-dione-5-ylidinemethyl)-phenoxy]-ethoxy}-3′,4′,5′-trimethoxy-flavone], the “% Fall in lipid levels (Triton model) PL” value in series [1] (phospholipid) came out at 25%. Besides, the “% Fall in lipid levels (Triton model) TC” value in series [1] (total cholesterol) came out at 20%. The “% Fall in lipid levels (Triton model) TG” value in series [1] (triglycerides) is recorded as 26%. Besides, the “% Fall in blood glucose levels, SLM” value in the series with sucrose loaded rat came to 9.59%.

The molecule `COc1ccc(-c2cc(=O)c3ccc(OCC(O)CNC(C)C)cc3o2)cc1OC` (stereo not shown) [Compound 46, 3′,4′-Dimethoxy-7-[2-hydroxy-3-iso-propylamino-propoxy]-flavone] had a melting point of 144 to 145 °C. Besides, the inhibition in vivo at 100 mg/kg with sucrose loaded rat was found to be 23.9%.

For `O=C1NC(=O)C(=Cc2ccc(OCCOc3ccc4c(=O)cc(-c5cc(OCc6ccccc6)cc(OCc6ccccc6)c5)oc4c3)cc2)S1` [Compound 62, 3′,5′-Dibenzyloxy-7-{2-[4-(thiazolidin-2,4-dione-5-ylidinemethyl)-phenoxy]-ethoxy}-flavone], in series [1] (phospholipid), the “% Fall in lipid levels (Triton model) PL” value is on record as 15%. The “% Fall in lipid levels (Triton model) TC” value in series [1] (total cholesterol) was 15%. For the same molecule, in series [1] (triglycerides), the “% Fall in lipid levels (Triton model) TG” value is listed as 18%. In the series on sucrose loaded rat, the “% Fall in blood glucose levels, SLM” value is on record as “NIL”.

The molecule `COc1cc(OC)cc(-c2cc(=O)c3ccc(OCC(O)CN4CCN(c5ccccc5)CC4)cc3o2)c1` (stereo not shown) [Compound 45, 3′,5′-Dimethoxy-7-[2-hydroxy-3-(4-phenylpiperazin-1-yl)-propoxy]-flavone] gave a melting point of 195 to 196 °C. The inhibition in vivo at 100 mg/kg in series [1] (setting [3]) is 20%. Also, the inhibition in vivo at 100 mg/kg in series [1] (setting [4]) is 30%. Moreover, the inhibition in vivo at 100 mg/kg in series [1] (setting [5]) was 31%. The “% Fall in blood glucose levels, SLM” value in the series on sucrose loaded rat was “NIL”.

As to `O=C1NC(=O)C(=Cc2ccc(OCCOc3ccc4c(=O)cc(-c5ccc(OCc6ccccc6)c(OCc6ccccc6)c5)oc4c3)cc2)S1` [Compound 63, 3′,4′-Dibenzyloxy-7-{2-[4-(thiazolidin-2,4-dione-5-ylidinemethyl)-phenoxy]-ethoxy}-flavone], the “% Fall in blood glucose levels, SLM” value in the series with sucrose loaded rat was 26.0%.

Consider `CC(C)NCC(O)COc1ccc2c(=O)cc(-c3ccc(O)c(O)c3)oc2c1` (stereo not shown) [Compound 51, 3′,4′-Dihydroxy-7-(2-hydroxy-3-iso-propylamino-propoxy)-flavone], for which the values for the inhibition in vivo at 100 mg/kg in series [1] (setting [3]), in series [1] (setting [4]) and in series [1] (setting [5]) were 13%, 15% and 19%, respectively. In addition, the “% Fall in blood glucose levels, SLM” value in the series with sucrose loaded rat is reported as “NIL”.

As to `COc1ccc(-c2cc(=O)c3ccc(OCCCOc4ccc(C=C5SC(=O)NC5=O)cc4)cc3o2)cc1OC` [Compound 67, 3′,4′-Dimethoxy-7-{3-[4-(thiazolidin-2,4-dione-5-ylidinemethyl)-phenoxy]-propoxy}-flavone], the “% Fall in lipid levels (Triton model) PL” value in series [1] (phospholipid) came out at 14%. Further, in series [1] (total cholesterol), the “% Fall in lipid levels (Triton model) TC” value came to 28%. The “% Fall in lipid levels (Triton model) TG” value in series [1] (triglycerides) came to 21%. Besides, the “% Fall in blood glucose levels, SLM” value in the series on sucrose loaded rat came out at 13.60%. For the same molecule, in series [2], the “% Fall in blood glucose levels, STZ-S 5 h” value worked out at 18.7% and the “% Fall in blood glucose levels, STZ-S 24 h” value amounted to 13.6%.

Regarding `CC(C)(C)NCC(O)COc1ccc2c(=O)cc(-c3ccc(O)c(O)c3)oc2c1` (stereo not shown) [Compound 50, 7-(3-tert-Butylamino-2-hydroxy-propoxy)-3′,4′-dihydroxy-flavone], the inhibition in vivo at 100 mg/kg is 23% in series [1] (setting [3]), 21% in series [1] (setting [4]) and 25% in series [1] (setting [5]). For the same molecule, in the series with sucrose loaded rat, the “% Fall in blood glucose levels, SLM” value is “NIL”.
